According to patent US20260294915A1, “COMBINATION THERAPY COMPRISING A MAT2A INHIBITOR AND A TOPOISOMERASE INHIBITOR, A SPLICING INHIBITOR SULFONAMIDE, OR A KIF18 INHIBITOR” (IDEAYA BIOSCIENCES, INC., priority 2023, published 2026):
Marks after values point to notes of the source that are not given here.

What was measured:
Assay in all cases: 10-day proliferation (CTG), SPLAM titration + 1000 nM Compound A, Bliss (Example 5; Tables 12-19)
Assay type in all cases: cell-based
Set-up in all cases: key: GDI scale -100 to 100; 0 = cell number at T0; <0 cytotoxic
Conditions in all cases: alone or + 1 uM Cmpd A
NCI-H838 = tested on: NCI-H838
Protocol: (§1) Synergy was measured across the Indisulam titration with 1000 nM Compound A by Bliss Independence analysis. Bliss scores >10 are indicated by “*” and are considered synergistic. […] Synergy as reported using Bliss may be underrepresented within cytotoxic dose ranges. Growth death index values are shown for the combination titration and each single agent Compound A (Cmpd A) and Indisulam on a scale of −100 to 100 with the midpoint (0) being the number of cells at the beginning of the combination (T0). Scores less than 0 are indicated with “**” and are representative of a cytotoxic response. Bliss and GDI values are shown for five MTAP-deficient cell lines: NCI-1H838 (12A), SW900 (12B), RT112/84 (12C), UMUC5 (121D), and UMUC11 (12E).
(§2) A 10-day proliferation assay was performed in a panel of 5 MTAP-deficient and 2 wild type non-small cell lung and bladder cancer cell lines. Optimal cell seeding for all cell lines was determined by assessing the growth over a range of seeding densities in a 384-well format to identify conditions that permitted proliferation for 10 days. Cells were then plated at the optimal seeding density and treated with 20-point, two-fold dilution series of each of four structurally different SPLAMs in combination with a 1000 nM fixed concentration of Compound A. Single agent titrations for Compound A and each SPLAM were included for comparison. Concentrations tested for each SPLAM alone or in combination ranged from 0.04 nM to 20,000 nM. A plate of cells was harvested at the time of compound addition to quantify the number of cells at the start of the combination (T0). For cell quantification, the harvested cells were lysed with Promega CellTiter-Glo (CTG) reagent according to the manufacturer's protocol and the chemiluminescent signal was detected as described in Example 1 above. Cells were incubated with the drug combinations at 37° C. with 5% CO2 for 10 days. Cells were then lysed with CTG and the chemiluminescent signal was measured.
(§3) CTG values obtained after the 10-day treatment were background subtracted and expressed as a percent of the T0 value set at 100%. Data were plotted against compound concentration and fit with a four-parameter equation to generate single agent dose response curves. Percent inhibition was determined for each combination and single agent concentration compared to a DMSO control. In addition, the overall net growth or death of the cells was calculated and reported as a growth death index (GDI) value on a scale of −100 to 100 with the midpoint (0) being the number of cells at the beginning of the combination (T0).
(§4) Predicted inhibition was calculated using (Ea+Eb)−(Ea*Eb) where E equals the effect (inhibition) of each single agent (a and b). A difference between the observed inhibition percentage and the predicted inhibition percentage greater than 10% was considered synergistic. A Bliss score was only reported for combinations eliciting >20% growth inhibition (GDI value <80). Since Bliss is calculated based on growth inhibition, scores within cytotoxic dose ranges may not accurately reflect synergistic cytoxicity.
(§5) Synergy was measured across the E7820 titration with 1000 nM Compound A by Bliss Independence analysis. Bliss scores >10 are indicated by “*” and are considered synergistic. […] Synergy as reported using Bliss may be underrepresented within cytotoxic dose ranges. Growth death index values are shown for the combination titration and each single agent Compound A (Cmpd A) and Indisulam on a scale of −100 to 100 with the midpoint (0) being the number of cells at the beginning of the combination (T0). Scores less than 0 are indicated by “**” and are representative of a cytotoxic response. Bliss and GDI values are shown for five MTAP-deficient cell lines: NCI-1H838 (14A), SW900 (14B), RT112/84 (14C), UMUC5 (141)), and UMUC11 (14E).
(§6) Synergy was measured across the Chloroquinoxaline Sulfonamide titration with 1000 nM Compound A by Bliss Independence analysis.

RT112/84 = tested on: RT112/84
Protocol: as §1, §2, §3, §4, §5, §6

UMUC11 = tested on: UMUC11
Protocol: as §1, §2, §3, §4, §5, §6

UMUC5 = tested on: UMUC5
Protocol: as §1, §2, §3, §4, §5, §6

Structure (SMILES): NS(=O)(=O)c1ccc(S(=O)(=O)Nc2cccc3c(Cl)c[nH]c23)cc1 [Indisulam, N-(3-chloro-1H-indol-7-yl)benzene-1,4-disulfonamide]
- GDI (NCI-H838; SPLAM 0.04 nM): 100
- GDI (NCI-H838; SPLAM 0.1 nM): 100
- GDI (NCI-H838; SPLAM 0.2 nM): 100
- GDI (NCI-H838; SPLAM 0.3 nM): 100
- GDI (NCI-H838; SPLAM 0.6 nM): 100
- GDI (NCI-H838; SPLAM 1.2 nM): 100
- GDI (NCI-H838; SPLAM 2.4 nM): 100
- GDI (NCI-H838; SPLAM 4.9 nM): 100
- GDI (NCI-H838; SPLAM 9.8 nM): 100
- GDI (NCI-H838; SPLAM 19.5 nM): 100
- GDI (NCI-H838; SPLAM 39.1 nM): 100
- GDI (NCI-H838; SPLAM 78.1 nM): 100
- GDI (NCI-H838; SPLAM 156.3 nM): 100
- GDI (NCI-H838; SPLAM 312.5 nM): 54
- GDI (NCI-H838; SPLAM 625 nM): 11
- GDI (NCI-H838; SPLAM 1250 nM): 2
- GDI (NCI-H838; SPLAM 2500 nM): 1
- GDI (NCI-H838; SPLAM 5000 nM): −13**
- GDI (NCI-H838; SPLAM 10000 nM): −50**
- GDI (NCI-H838; SPLAM 20000 nM): −52**
- GDI (RT112/84; SPLAM 0.04 nM): 98
- GDI (RT112/84; SPLAM 0.1 nM): 100
- GDI (RT112/84; SPLAM 0.2 nM): 100
- GDI (RT112/84; SPLAM 0.3 nM): 100
- GDI (RT112/84; SPLAM 0.6 nM): 96
- GDI (RT112/84; SPLAM 1.2 nM): 95
- GDI (RT112/84; SPLAM 2.4 nM): 100
- GDI (RT112/84; SPLAM 4.9 nM): 100
- GDI (RT112/84; SPLAM 9.8 nM): 100
- GDI (RT112/84; SPLAM 19.5 nM): 100
- GDI (RT112/84; SPLAM 39.1 nM): 100
- GDI (RT112/84; SPLAM 78.1 nM): 100
- GDI (RT112/84; SPLAM 156.3 nM): 99
- GDI (RT112/84; SPLAM 312.5 nM): 44
- GDI (RT112/84; SPLAM 625 nM): 12
- GDI (RT112/84; SPLAM 1250 nM): −34**
- GDI (RT112/84; SPLAM 2500 nM): −76**
- GDI (RT112/84; SPLAM 5000 nM): −63**
- GDI (RT112/84; SPLAM 10000 nM): −74**
- GDI (RT112/84; SPLAM 20000 nM): −92**
- GDI (UMUC11; SPLAM 0.04 nM): 100
- GDI (UMUC11; SPLAM 0.1 nM): 100
- GDI (UMUC11; SPLAM 0.2 nM): 100
- GDI (UMUC11; SPLAM 0.3 nM): 100
- GDI (UMUC11; SPLAM 0.6 nM): 100
- GDI (UMUC11; SPLAM 1.2 nM): 100
- GDI (UMUC11; SPLAM 2.4 nM): 100
- GDI (UMUC11; SPLAM 4.9 nM): 100
- GDI (UMUC11; SPLAM 9.8 nM): 100
- GDI (UMUC11; SPLAM 19.5 nM): 100
- GDI (UMUC11; SPLAM 39.1 nM): 100
- GDI (UMUC11; SPLAM 78.1 nM): 100
- GDI (UMUC11; SPLAM 156.3 nM): 100
- GDI (UMUC11; SPLAM 312.5 nM): 73
- GDI (UMUC11; SPLAM 625 nM): 35
- GDI (UMUC11; SPLAM 1250 nM): 13
- GDI (UMUC11; SPLAM 2500 nM): 5
- GDI (UMUC11; SPLAM 5000 nM): 2
- GDI (UMUC11; SPLAM 10000 nM): 2
- GDI (UMUC11; SPLAM 20000 nM): 1
- GDI (UMUC5; SPLAM 0.04 nM): 100
- GDI (UMUC5; SPLAM 0.1 nM): 100
- GDI (UMUC5; SPLAM 0.2 nM): 100
- GDI (UMUC5; SPLAM 0.3 nM): 100
- GDI (UMUC5; SPLAM 0.6 nM): 100
- GDI (UMUC5; SPLAM 1.2 nM): 98
- GDI (UMUC5; SPLAM 2.4 nM): 100
- GDI (UMUC5; SPLAM 4.9 nM): 100
- GDI (UMUC5; SPLAM 9.8 nM): 100
- GDI (UMUC5; SPLAM 19.5 nM): 100
- GDI (UMUC5; SPLAM 39.1 nM): 100
- GDI (UMUC5; SPLAM 78.1 nM): 100
- GDI (UMUC5; SPLAM 156.3 nM): 94
- GDI (UMUC5; SPLAM 312.5 nM): 69
- GDI (UMUC5; SPLAM 625 nM): 26
- GDI (UMUC5; SPLAM 1250 nM): 5
- GDI (UMUC5; SPLAM 2500 nM): 3
- GDI (UMUC5; SPLAM 5000 nM): 3
- GDI (UMUC5; SPLAM 10000 nM): 2
- GDI (UMUC5; SPLAM 20000 nM): 2
